Experimental data as given in the kinase profiling compilation of Christmann-Franck et al. (2016).

What was measured:
Experiment in all cases: radiometric filter-binding kinase assay, Kinase HotSpot
Settings in all cases: compound 0.5 µM; ATP 10 µM
[1] = biological target: TYK2 JH1 catalytic (human) (UniProt P29597)
EPHB2 (human) = EPHB2 (human) (UniProt P29323)
KDR (human) = KDR (human) (UniProt P35968)
FGFR2 (human) = FGFR2 (human) (UniProt P21802)
RPS6KA5 KD2 (human) = RPS6KA5 KD2 (human) (UniProt O75582)
PRKCI (human) = PRKCI (human) (UniProt P41743)
PRKCI (human), sequence (P41743 whole entry, looked up): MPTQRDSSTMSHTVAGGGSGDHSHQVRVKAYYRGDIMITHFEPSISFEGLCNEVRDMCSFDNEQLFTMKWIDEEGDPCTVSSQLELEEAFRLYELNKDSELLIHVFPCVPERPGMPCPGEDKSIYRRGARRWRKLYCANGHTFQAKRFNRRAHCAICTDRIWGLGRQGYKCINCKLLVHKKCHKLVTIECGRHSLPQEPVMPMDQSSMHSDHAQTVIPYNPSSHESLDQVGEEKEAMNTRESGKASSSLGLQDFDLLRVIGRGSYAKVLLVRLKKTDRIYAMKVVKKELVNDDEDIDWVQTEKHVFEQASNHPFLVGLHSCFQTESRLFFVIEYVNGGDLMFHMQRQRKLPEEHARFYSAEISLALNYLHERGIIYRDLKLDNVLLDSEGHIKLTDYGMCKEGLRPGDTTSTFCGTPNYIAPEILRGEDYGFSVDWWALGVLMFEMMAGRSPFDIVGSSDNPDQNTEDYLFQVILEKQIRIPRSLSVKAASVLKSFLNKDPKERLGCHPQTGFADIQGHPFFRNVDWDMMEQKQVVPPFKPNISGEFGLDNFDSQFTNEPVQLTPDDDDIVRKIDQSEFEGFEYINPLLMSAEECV

PAK2 (human) = PAK2 (human) (UniProt Q13177)
TXK (human) = TXK (human) (UniProt P42681)
DYRK1B (human) = DYRK1B (human) (UniProt Q9Y463)
JAK2 JH1 JH2 (human) = JAK2 JH1 JH2 (human) (UniProt O60674)
CDK6 CCND3 (human) = CDK6 CCND3 (human) (UniProt P30281+Q00534)
AURKA (human) = AURKA (human) (UniProt O14965)
FLT1 (human) = FLT1 (human) (UniProt P17948)
DSTYK (human) = DSTYK (human) (UniProt Q6XUX3)
IRAK4 (human) = IRAK4 (human) (UniProt Q9NWZ3)
MAPKAPK2 (human) = MAPKAPK2 (human) (UniProt P49137)
MAPKAPK2 (human), sequence (P49137 whole entry, looked up): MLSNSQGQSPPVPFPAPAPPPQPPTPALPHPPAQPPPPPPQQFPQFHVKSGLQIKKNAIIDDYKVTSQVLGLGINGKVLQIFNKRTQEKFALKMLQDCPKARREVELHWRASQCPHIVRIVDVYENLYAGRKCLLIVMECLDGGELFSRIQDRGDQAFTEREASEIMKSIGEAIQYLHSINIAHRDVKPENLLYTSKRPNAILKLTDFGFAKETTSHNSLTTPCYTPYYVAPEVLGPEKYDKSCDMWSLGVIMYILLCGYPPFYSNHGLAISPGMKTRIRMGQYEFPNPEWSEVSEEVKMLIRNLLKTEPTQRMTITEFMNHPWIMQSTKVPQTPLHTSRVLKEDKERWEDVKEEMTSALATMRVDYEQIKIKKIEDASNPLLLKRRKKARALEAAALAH

ABL2 (human) = ABL2 (human) (UniProt P42684)
ABL2 (human), sequence (P42684 whole entry, looked up): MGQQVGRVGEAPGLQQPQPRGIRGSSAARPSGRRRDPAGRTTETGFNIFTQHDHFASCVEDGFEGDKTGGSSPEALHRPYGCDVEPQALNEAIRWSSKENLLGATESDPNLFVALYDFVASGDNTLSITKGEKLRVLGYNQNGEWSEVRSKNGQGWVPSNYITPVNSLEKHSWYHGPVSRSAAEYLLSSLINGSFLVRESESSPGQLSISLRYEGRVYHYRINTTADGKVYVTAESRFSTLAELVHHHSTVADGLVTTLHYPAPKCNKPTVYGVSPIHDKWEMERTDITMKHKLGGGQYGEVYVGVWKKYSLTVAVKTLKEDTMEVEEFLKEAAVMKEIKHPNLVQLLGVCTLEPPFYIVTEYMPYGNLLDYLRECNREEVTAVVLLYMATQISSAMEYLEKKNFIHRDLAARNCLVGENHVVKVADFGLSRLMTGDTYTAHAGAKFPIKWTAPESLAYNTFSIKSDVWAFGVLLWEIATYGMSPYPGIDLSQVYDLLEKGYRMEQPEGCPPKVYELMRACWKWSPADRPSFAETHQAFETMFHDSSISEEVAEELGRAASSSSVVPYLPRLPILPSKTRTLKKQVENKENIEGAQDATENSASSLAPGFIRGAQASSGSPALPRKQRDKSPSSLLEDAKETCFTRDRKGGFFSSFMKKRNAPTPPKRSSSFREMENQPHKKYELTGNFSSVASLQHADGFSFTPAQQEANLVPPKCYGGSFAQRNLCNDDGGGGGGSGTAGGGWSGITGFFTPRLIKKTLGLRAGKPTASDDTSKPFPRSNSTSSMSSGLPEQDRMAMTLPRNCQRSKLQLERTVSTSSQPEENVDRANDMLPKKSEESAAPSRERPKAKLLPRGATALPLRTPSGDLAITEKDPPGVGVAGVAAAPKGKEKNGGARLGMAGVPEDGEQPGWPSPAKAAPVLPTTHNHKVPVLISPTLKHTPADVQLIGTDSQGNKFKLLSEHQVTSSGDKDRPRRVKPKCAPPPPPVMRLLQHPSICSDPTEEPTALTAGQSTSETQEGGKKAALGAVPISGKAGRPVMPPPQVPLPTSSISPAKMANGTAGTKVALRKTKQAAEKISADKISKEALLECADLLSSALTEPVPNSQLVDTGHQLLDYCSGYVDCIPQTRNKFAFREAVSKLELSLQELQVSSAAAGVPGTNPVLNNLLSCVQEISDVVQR

MAP2K2 (human) = MAP2K2 (human) (UniProt P36507)
PBK (human) = PBK (human) (UniProt Q96KB5)
EPHA8 (human) = EPHA8 (human) (UniProt P29322)
NEK9 (human) = NEK9 (human) (UniProt Q8TD19)
STK17A (human) = STK17A (human) (UniProt Q9UEE5)
SLK (human) = SLK (human) (UniProt Q9H2G2)
NTRK3 (human) = NTRK3 (human) (UniProt Q16288)
MAPK11 (human) = MAPK11 (human) (UniProt Q15759)
RPS6KB2 (human) = RPS6KB2 (human) (UniProt Q9UBS0)
FGFR3 (human) = FGFR3 (human) (UniProt P22607)
FGFR3 (human), sequence (P22607 whole entry, looked up): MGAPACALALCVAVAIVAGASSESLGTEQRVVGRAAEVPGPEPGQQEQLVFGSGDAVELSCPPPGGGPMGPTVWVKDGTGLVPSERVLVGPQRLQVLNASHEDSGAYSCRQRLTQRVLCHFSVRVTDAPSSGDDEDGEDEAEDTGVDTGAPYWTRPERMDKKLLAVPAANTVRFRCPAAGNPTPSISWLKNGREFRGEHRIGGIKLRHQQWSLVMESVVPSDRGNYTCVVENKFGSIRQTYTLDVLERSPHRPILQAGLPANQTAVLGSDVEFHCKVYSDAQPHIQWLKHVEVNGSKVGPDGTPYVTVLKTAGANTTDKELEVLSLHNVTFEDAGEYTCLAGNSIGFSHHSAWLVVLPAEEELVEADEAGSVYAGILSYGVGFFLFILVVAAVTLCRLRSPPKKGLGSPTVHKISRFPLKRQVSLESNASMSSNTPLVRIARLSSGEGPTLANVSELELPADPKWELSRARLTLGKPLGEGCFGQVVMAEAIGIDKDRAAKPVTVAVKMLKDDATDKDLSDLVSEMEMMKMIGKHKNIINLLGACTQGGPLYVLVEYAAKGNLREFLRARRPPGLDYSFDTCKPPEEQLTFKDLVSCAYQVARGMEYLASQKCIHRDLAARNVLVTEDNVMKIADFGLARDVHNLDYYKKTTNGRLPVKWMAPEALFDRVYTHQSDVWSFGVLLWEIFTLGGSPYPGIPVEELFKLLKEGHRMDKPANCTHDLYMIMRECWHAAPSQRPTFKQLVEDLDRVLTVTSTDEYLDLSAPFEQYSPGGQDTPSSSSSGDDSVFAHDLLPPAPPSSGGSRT

NEK4 (human) = NEK4 (human) (UniProt P51957)
SRPK1 (human) = SRPK1 (human) (UniProt Q96SB4)
SRPK1 (human), sequence (Q96SB4 whole entry, looked up): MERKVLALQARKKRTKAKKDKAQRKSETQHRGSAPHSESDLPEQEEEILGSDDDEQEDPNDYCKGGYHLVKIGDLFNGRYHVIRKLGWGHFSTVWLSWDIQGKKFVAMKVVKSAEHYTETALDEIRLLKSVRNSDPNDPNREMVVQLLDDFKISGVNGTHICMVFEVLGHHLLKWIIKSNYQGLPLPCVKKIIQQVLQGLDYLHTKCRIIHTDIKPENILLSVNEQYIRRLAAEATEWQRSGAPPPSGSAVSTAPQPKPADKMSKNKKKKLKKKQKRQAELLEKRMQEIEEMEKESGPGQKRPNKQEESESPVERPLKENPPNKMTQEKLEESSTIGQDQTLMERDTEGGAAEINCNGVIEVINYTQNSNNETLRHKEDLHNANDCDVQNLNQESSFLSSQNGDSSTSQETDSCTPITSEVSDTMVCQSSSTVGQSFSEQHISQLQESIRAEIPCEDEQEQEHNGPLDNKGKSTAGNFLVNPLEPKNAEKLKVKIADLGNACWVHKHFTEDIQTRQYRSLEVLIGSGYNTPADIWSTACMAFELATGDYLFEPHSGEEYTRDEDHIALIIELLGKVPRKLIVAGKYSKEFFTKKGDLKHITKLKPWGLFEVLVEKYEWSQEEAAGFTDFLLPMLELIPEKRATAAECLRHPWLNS

PNCK (human) = PNCK (human) (UniProt Q6P2M8)
CDK1 CCNB1 (human) = CDK1 CCNB1 (human) (UniProt P06493+P14635)
TEK (human) = TEK (human) (UniProt Q02763)
NEK11 (human) = NEK11 (human) (UniProt Q8NG66)
NEK11 (human), sequence (Q8NG66 whole entry, looked up): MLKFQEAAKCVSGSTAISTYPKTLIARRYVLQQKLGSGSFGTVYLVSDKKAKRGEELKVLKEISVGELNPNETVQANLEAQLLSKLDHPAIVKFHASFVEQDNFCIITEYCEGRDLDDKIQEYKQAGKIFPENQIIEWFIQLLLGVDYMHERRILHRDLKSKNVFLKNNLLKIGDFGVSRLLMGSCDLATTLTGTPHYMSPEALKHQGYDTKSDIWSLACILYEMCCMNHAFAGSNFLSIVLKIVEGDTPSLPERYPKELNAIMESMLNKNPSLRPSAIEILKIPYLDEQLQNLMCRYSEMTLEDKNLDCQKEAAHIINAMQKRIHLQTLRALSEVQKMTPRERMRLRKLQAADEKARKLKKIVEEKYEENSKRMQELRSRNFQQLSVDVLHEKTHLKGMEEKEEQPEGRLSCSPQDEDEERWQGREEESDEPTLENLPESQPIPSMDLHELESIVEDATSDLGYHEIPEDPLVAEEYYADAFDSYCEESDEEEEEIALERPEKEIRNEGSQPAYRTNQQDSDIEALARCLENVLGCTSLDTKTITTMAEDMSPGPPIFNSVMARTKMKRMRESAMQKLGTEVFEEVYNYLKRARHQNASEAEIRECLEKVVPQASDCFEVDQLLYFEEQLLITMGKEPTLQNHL

CDC42BPB (human) = CDC42BPB (human) (UniProt Q9Y5S2)
PRKG2 (human) = PRKG2 (human) (UniProt Q13237)
PRKG2 (human), sequence (Q13237 whole entry, looked up): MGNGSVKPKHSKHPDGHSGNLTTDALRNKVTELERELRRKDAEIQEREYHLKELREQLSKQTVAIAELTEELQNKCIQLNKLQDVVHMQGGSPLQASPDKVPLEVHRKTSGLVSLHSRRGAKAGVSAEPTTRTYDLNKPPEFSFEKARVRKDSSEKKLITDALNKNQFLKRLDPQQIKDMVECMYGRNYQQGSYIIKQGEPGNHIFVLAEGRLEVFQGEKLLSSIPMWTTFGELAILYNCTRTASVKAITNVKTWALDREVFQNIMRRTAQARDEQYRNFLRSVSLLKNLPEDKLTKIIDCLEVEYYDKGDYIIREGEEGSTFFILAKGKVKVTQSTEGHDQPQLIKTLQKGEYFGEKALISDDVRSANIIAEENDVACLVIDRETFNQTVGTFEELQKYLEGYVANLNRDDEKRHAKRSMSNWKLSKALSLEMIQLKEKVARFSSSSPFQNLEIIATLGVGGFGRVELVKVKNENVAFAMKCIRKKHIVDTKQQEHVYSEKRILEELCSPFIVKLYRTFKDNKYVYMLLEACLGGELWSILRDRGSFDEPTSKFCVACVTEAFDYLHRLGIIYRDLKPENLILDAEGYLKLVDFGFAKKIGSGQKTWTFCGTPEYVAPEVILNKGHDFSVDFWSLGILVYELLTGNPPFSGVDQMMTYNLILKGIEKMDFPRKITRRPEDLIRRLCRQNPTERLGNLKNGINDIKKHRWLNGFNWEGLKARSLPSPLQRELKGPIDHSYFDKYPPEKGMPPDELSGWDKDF

GRK5 (human) = GRK5 (human) (UniProt P34947)
CAMK2A (human) = CAMK2A (human) (UniProt Q9UQM7)
ALK (human) = ALK (human) (UniProt Q9UM73)
GSK3A (human) = GSK3A (human) (UniProt P49840)
CDK5 CDK5R1 p25 (human) = CDK5 CDK5R1 p25 (human) (UniProt Q00535+Q15078)
BTK (human) = BTK (human) (UniProt Q06187)
AKT1 (human) = AKT1 (human) (UniProt P31749)

In the case of `CN(C)C[C@H]1CCn2c(c(C3=C(c4cn(C)c5ccccc45)C(=O)NC3=O)c3ccccc32)C1`, the residual activity [1] is reported as 104%, the residual activity (EPHB2 (human)) is reported as 110% and the residual activity (KDR (human)) is reported as 101%. The residual activity (FGFR2 (human)) was 104%, the residual activity (RPS6KA5 KD2 (human)) was 24.8% and the residual activity (PRKCI (human)) was 36.2%. For the same compound, the residual activity (PAK2 (human)) was 85.1%, the residual activity (TXK (human)) was 103% and the residual activity (DYRK1B (human)) was 92.2%. For the same compound, the residual activity (JAK2 JH1 JH2 (human)) was 98.6%, the residual activity (CDK6 CCND3 (human)) was 95% and the residual activity (AURKA (human)) was 87.7%. The residual activity (FLT1 (human)) was 91.3%, the residual activity (DSTYK (human)) was 89.4% and the residual activity (IRAK4 (human)) was 107%. For the same compound, the residual activity (MAPKAPK2 (human)) was 102%, the residual activity (ABL2 (human)) was 96.3% and the residual activity (MAP2K2 (human)) was 101%. The residual activity (PBK (human)) was 101%, the residual activity (EPHA8 (human)) was 102% and the residual activity (NEK9 (human)) was 97.6%. The residual activity (STK17A (human)) was 87.6%, the residual activity (SLK (human)) was 83.1% and the residual activity (NTRK3 (human)) was 75%. The residual activity (MAPK11 (human)) was 109%, the residual activity (RPS6KB2 (human)) was 67.6% and the residual activity (FGFR3 (human)) was 96.3%. For the same compound, the residual activity (NEK4 (human)) was 96.7%, the residual activity (SRPK1 (human)) was 103% and the residual activity (PNCK (human)) was 95.2%. It also gave a residual activity (CDK1 CCNB1 (human)) of 53.7%, a residual activity (TEK (human)) of 98.4% and a residual activity (NEK11 (human)) of 74.1%. It also gave a residual activity (CDC42BPB (human)) of 103%, a residual activity (PRKG2 (human)) of 90.7% and a residual activity (GRK5 (human)) of 56.2%. For the same compound, the residual activity (CAMK2A (human)) was 100%, the residual activity (ALK (human)) was 99.6% and the residual activity (GSK3A (human)) was 14.2%. The residual activity (CDK5 CDK5R1 p25 (human)) was 84.7%, the residual activity (BTK (human)) was 103% and the residual activity (AKT1 (human)) was 98.7%.
